The subject of this assay is P388 leukemia ip, CD2F1 mice, survival T/C. In words: NCI In Vivo Anticancer Drug Screen. Data for tumor model P388 Leukemia (intraperitoneal) in CD2F1 (CDF1) mice. The settings on record: endpoint: median survival time, higher = longer survival. A digest of the protocol:
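Mice carrying the transplanted tumor received test compound or vehicle. Survival was recorded in each group, and the value is the treated-group measurement divided by that of the vehicle-treated control group.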

Where [1] appears, read: dose: 6.25 mg/kg/injection, schedule: Q01DX009 (ip), vehicle: Klucel (hydroxypropylcellulose) (HPC).
Setting [2] is: dose: 50.0 mg/kg/injection, schedule: Q01DX009 (ip), vehicle: Klucel (hydroxypropylcellulose) (HPC).
Setting [3] is: dose: 50.0 mg/kg/injection, schedule: Q01DX009 (ip), vehicle: saline.
Where [4] appears, read: dose: 100.0 mg/kg/injection, schedule: Q01DX009 (ip), vehicle: saline.
The mark [5] stands for this setting: dose: 200.0 mg/kg/injection, schedule: Q01DX009 (ip), vehicle: saline.
[6] abbreviates: dose: 50.0 mg/kg/injection, schedule: Q01DX009 (ip), vehicle: saline with Tween-80.
Where [7] appears, read: dose: 25.0 mg/kg/injection, schedule: Q01DX005 (ip), vehicle: Klucel (hydroxypropylcellulose) (HPC).
The mark [8] stands for this setting: dose: 50.0 mg/kg/injection, schedule: Q01DX005 (ip), vehicle: Klucel (hydroxypropylcellulose) (HPC).
Setting [9] is: dose: 60.0 mg/kg/injection, schedule: Q01DX005 (ip), vehicle: saline with Tween-80.
[10] abbreviates: dose: 120.0 mg/kg/injection, schedule: Q01DX005 (ip), vehicle: saline with Tween-80.
Setting [11] is: dose: 240.0 mg/kg/injection, schedule: Q01DX005 (ip), vehicle: saline with Tween-80.

T/C data for 21 compounds are collected here from PubChem BioAssay AID330 (DTP/NCI, 2004).

Values joined by “and” are separate entries in the source; they are usually repeats but may differ in a detail not shown here. Identical values can stand only once. Toxic doses and inconclusive results are not listed.

For the compound `Cc1cc(C)n2nc3c4ccsc4ncc3c2n1`, the T/C by setting is: (dose: 25.0 mg/kg/injection, schedule: Q04DX002 (ip), vehicle: saline with Tween-80) 105 % of control and 95 % of control; (dose: 50.0 mg/kg/injection, schedule: Q04DX002 (ip), vehicle: saline with Tween-80) 99 % of control and 105 % of control; (dose: 100.0 mg/kg/injection, schedule: Q04DX002 (ip), vehicle: saline with Tween-80) 116 % of control and 118 % of control and 119 % of control.

Consider `Cc1ccc2c(CC(C)(C)[N+]3(C)CCCC3)ccc(C(C)C)cc1-2`, for which the T/C (dose: 100.0 mg/kg/injection, schedule: Q04DX002 (ip), vehicle: Klucel (hydroxypropylcellulose) (HPC)) is 114 % of control; the T/C (dose: 200.0 mg/kg/injection, schedule: Q04DX002 (ip), vehicle: Klucel (hydroxypropylcellulose) (HPC)) is 112 % of control; the T/C (dose: 400.0 mg/kg/injection, schedule: Q04DX002 (ip), vehicle: Klucel (hydroxypropylcellulose) (HPC)) is 105 % of control.

With `CCC1(c2ccc(-c3ccccc3)cc2)OC(OC(=O)NC)C=CC1=O` (configuration not stated), the T/C under setting [1] was 98 % of control.

Take `NC(CSCc1ccccc1)C(=O)O` (configuration not stated): the T/C by setting is: (dose: 50.0 mg/kg/injection, schedule: Q01DX091 (ip), vehicle: Klucel (hydroxypropylcellulose) (HPC)) 100 % of control; (dose: 100.0 mg/kg/injection, schedule: Q01DX091 (ip), vehicle: Klucel (hydroxypropylcellulose) (HPC)) 102 % of control; (dose: 200.0 mg/kg/injection, schedule: Q01DX091 (ip), vehicle: Klucel (hydroxypropylcellulose) (HPC)) 91 % of control; (dose: 400.0 mg/kg/injection, schedule: Q01DX091 (ip), vehicle: Klucel (hydroxypropylcellulose) (HPC)) 101 % of control.

On to `CN1CCO[Si](C)(C)C[Si](C)(C)OCC1`, for which the T/C is 103 % of control (dose: 60.0 mg/kg/injection, schedule: Q01DX005 (ip), vehicle: saline); 102 % of control (dose: 120.0 mg/kg/injection, schedule: Q01DX005 (ip), vehicle: saline); 105 % of control (dose: 240.0 mg/kg/injection, schedule: Q01DX005 (ip), vehicle: saline).

On to `COc1ccc(C(=O)/C=C/c2ccc3cc(OC)c(OC)cc3c2)cc1OC`, for which the T/C was 103 % of control (dose: 3.13 mg/kg/injection, schedule: Q01DX009 (ip), vehicle: Klucel (hydroxypropylcellulose) (HPC)); 100 % of control under setting [1]; 106 % of control (dose: 12.5 mg/kg/injection, schedule: Q01DX009 (ip), vehicle: Klucel (hydroxypropylcellulose) (HPC)); 106 % of control (dose: 25.0 mg/kg/injection, schedule: Q01DX009 (ip), vehicle: Klucel (hydroxypropylcellulose) (HPC)); 98 % of control under setting [2].

With `CS(=O)(=O)O`, the T/C reads like this: under setting [3], 100 % of control; under setting [4], 110 % of control; under setting [5], 108 % of control.

Take `Clc1cccc(-c2nc3ccccc3c3ccccc23)c1`: the T/C was 100 % of control (dose: 100.0 mg/kg/injection, schedule: Q04DX003 (ip), vehicle: saline with Tween-80); 90 % of control (dose: 200.0 mg/kg/injection, schedule: Q04DX003 (ip), vehicle: saline with Tween-80); 90 % of control (dose: 400.0 mg/kg/injection, schedule: Q04DX003 (ip), vehicle: saline with Tween-80).

As to `CCN(CC)CC(O)CNc1ncnc(N)c1C(=C(C)C)c1ccc(Cl)cc1` (configuration not stated), the T/C runs as follows: (dose: 25.0 mg/kg/injection, schedule: Q01DX009 (ip), vehicle: saline with Tween-80) 100 % of control; under setting [6], 100 % of control; (dose: 100.0 mg/kg/injection, schedule: Q01DX009 (ip), vehicle: saline with Tween-80) 90 % of control.

On to `CC1=CC(=O)C2OC(=O)CC3C=CCC1C32C` (configuration not stated), for which the T/C is 99 % of control under setting [7]; 103 % of control under setting [8]; 103 % of control (dose: 100.0 mg/kg/injection, schedule: Q01DX005 (ip), vehicle: Klucel (hydroxypropylcellulose) (HPC)).

Regarding `CC1CCC23C1CC(CC(=O)C2(C)O)C3(C)C` (configuration not stated), the T/C is, setting by setting: under setting [9], 100 % of control; under setting [10], 97 % of control; under setting [11], 106 % of control.

Regarding `S=C=NCCCCCCCCCCCCN=C=S`, the T/C is 112 % of control and 115 % of control (dose: 3.12 mg/kg/injection, schedule: Q01DX009 (ip), vehicle: saline with Tween-80); 106 % of control and 120 % of control (dose: 6.25 mg/kg/injection, schedule: Q01DX009 (ip), vehicle: saline with Tween-80).

As for `C=C1CC(O)C2C(C[Se]c3ccccc3)C(=O)O[C@@H]2C2C(=C)[C@@H](O)CC12` (some centres not stated), the T/C is, setting by setting: under setting [9], 96 % of control; under setting [10], 100 % of control; under setting [11], 99 % of control.

Regarding `Cc1cc(N/N=C/c2ccc(F)cc2)c2cc3c(cc2n1)OCO3`, the T/C was 104 % of control (dose: 12.5 mg/kg/injection, schedule: Q01DX005 (ip), vehicle: Klucel (hydroxypropylcellulose) (HPC)); 104 % of control under setting [7]; 107 % of control and 109 % of control under setting [8].

`COCC(=O)[C@]1(O)Cc2c(O)c3c(c(O)c2[C@@H](OC2CC(N)C(O)C(C)O2)C1)C(=O)c1c(OC)cccc1C3=O` (some centres not stated): the T/C is, setting by setting: (dose: 6.25 mg/kg/injection, schedule: Q04DX003 (ip), vehicle: water) 100 % of control; (dose: 12.5 mg/kg/injection, schedule: Q04DX003 (ip), vehicle: water) 100 % of control; (dose: 25.0 mg/kg/injection, schedule: Q04DX003 (ip), vehicle: water) 109 % of control; (dose: 100.0 mg/kg/injection, schedule: Q04DX003 (ip), vehicle: water) 118 % of control; (dose: 200.0 mg/kg/injection, schedule: Q04DX003 (ip), vehicle: water) 87 % of control.

Turning to `COc1ccc2c(c1)CCC1C2=CCP1(C)=O` (configuration not stated), the T/C is 97 % of control (dose: 25.0 mg/kg/injection, schedule: Q01DX009 (ip), vehicle: saline); 101 % of control under setting [3]; 93 % of control under setting [4]; 91 % of control under setting [5].

For the compound `Cc1ccc2nc(N)nnc2c1`, the T/C by setting is: under setting [2], 104 % of control; (dose: 100.0 mg/kg/injection, schedule: Q01DX009 (ip), vehicle: Klucel (hydroxypropylcellulose) (HPC)) 100 % of control.

As to `COCCOC(=O)CCn1cc(F)c(=O)[nH]c1=O`, the T/C runs as follows: (dose: 30.0 mg/kg/injection, schedule: Q04DX002 (ip), vehicle: saline) 92 % of control; (dose: 60.0 mg/kg/injection, schedule: Q04DX002 (ip), vehicle: saline) 108 % of control; (dose: 120.0 mg/kg/injection, schedule: Q04DX002 (ip), vehicle: saline) 96 % of control; (dose: 200.0 mg/kg/injection, schedule: Q04DX002 (ip), vehicle: saline) 91 % of control and 123 % of control; (dose: 240.0 mg/kg/injection, schedule: Q04DX002 (ip), vehicle: saline) 96 % of control; (dose: 400.0 mg/kg/injection, schedule: Q04DX002 (ip), vehicle: saline) 93 % of control. Moreover, the T/C was 91 % of control (dose: 600.0 mg/kg/injection, schedule: Q04DX002 (ip), vehicle: saline); 118 % of control (dose: 800.0 mg/kg/injection, schedule: Q04DX002 (ip), vehicle: saline); 155 % of control (dose: 1600.0 mg/kg/injection, schedule: Q04DX002 (ip), vehicle: saline).

`Cc1ccc(-n2cnc3sc4c(c3c2=O)CCCC4)cc1`: the T/C by setting is: (dose: 60.0 mg/kg/injection, schedule: Q01DX005 (ip), vehicle: Klucel (hydroxypropylcellulose) (HPC)) 100 % of control; (dose: 120.0 mg/kg/injection, schedule: Q01DX005 (ip), vehicle: Klucel (hydroxypropylcellulose) (HPC)) 89 % of control; (dose: 240.0 mg/kg/injection, schedule: Q01DX005 (ip), vehicle: Klucel (hydroxypropylcellulose) (HPC)) 90 % of control.

Take `CC(=O)NN`: the T/C by setting is: under setting [6], 104 % of control; (dose: 50.0 mg/kg/injection, schedule: Q04DX003 (ip), vehicle: saline) 105 % of control; (dose: 100.0 mg/kg/injection, schedule: Q04DX003 (ip), vehicle: saline) 100 % of control; (dose: 200.0 mg/kg/injection, schedule: Q04DX003 (ip), vehicle: saline) 100 % of control.

Consider `Cn1nnnc1CCN(CCN(CCc1nnnn1C)/N=C\c1ccccc1)/N=C\c1ccccc1`, for which the T/C is 95 % of control (dose: 50.0 mg/kg/injection, schedule: Q04DX003 (ip), vehicle: Klucel (hydroxypropylcellulose) (HPC)); 95 % of control (dose: 100.0 mg/kg/injection, schedule: Q04DX003 (ip), vehicle: Klucel (hydroxypropylcellulose) (HPC)); 96 % of control (dose: 200.0 mg/kg/injection, schedule: Q04DX003 (ip), vehicle: Klucel (hydroxypropylcellulose) (HPC)).
